Laboratory results published in patent US20220041616A1, “SPIRO COMPOUND AND MEDICAL USES THEREOF” (The National Institutes of Pharmaceutical R&D Co., Ltd., priority 2018, published 2022).

Target: ACC2 (Homo sapiens, UniProt O00763)
Experiment: In vitro inhibition of ACC2 activity, ADP-Glo Kinase Analysis
Assay type: biochemical
Details: 1.1 nM ACC2, 20 μM acetyl-CoA, 15 μM ATP
Excerpt: ADP-Glo™ Kinase Analysis Kit (Promega) is used for the in vitro analysis of the inhibitory effect of the present compound on ACC1 or ACC2. ADP-Glo™ Kinase Analysis is a kinase detection analysis of luminescence method. ADP is produced in the process of catalyzing the substrate by ACC. ADP is converted into ATP which is then converted into light by Ultra-Glo™ luciferase. ADP is quantified by detecting the light signal, thus the enzyme activity can be measured by quantification of the ADP amount produced during the enzyme reaction. The analysis is carried out in two steps: in the first step, after the kinase reaction, a portion of ADP-Glo™ reagent equal in volume to the kinase reaction system is added to terminate the reaction and consume the remaining ATP; in the second step, a kinase detection reagent is added, which not only converts ADP into ATP, but also uses a coupled luciferase/luciferin reaction to detect newly synthesized ATP.
a. 10 mM compound stock solution (the present compound was dissolved in 100% DMSO to prepare the 10 mM stock solution) was diluted 50-fold to 200 μM with 100% DMSO, and then diluted in equal proportions (1:3) in a 96-well dilution plate (249944, Nunc). The gradient concentrations of the compound were 200 μM, 66.67 μM, 22.22 μM, 7.41 μM, 2.47 μM, 0.823 μM, 0.274 μM, 0.0914 μM, 0.0305 μM, 0.0102 μM, 0.00339 μM and 0.00113 μM.
b. 4.5 μL ACC1 working solution (BPS bioscience) (2.22 nM) was added to each well of a 384-well test plate (6007290, Perkin Elmer).
c. 0.5 μL of the serially diluted compound (prepared in step a) was added to each well of the 384-well test plate, which was centrifuged at 1000 rpm for 1 min and then incubated at room temperature for 15 min. […]
g. The chemiluminescence signal was detected with Perkin Elmer EnVision 2104. […]
The average value of the positive and negative control well and the standard deviation were calculated. The inhibition percentage was calculated according to the following formula: 100×[1−(compound−average value of positive control)/(average value of negative control-average value of positive control)]. […]

Chain of ACC2 (O00763 whole entry): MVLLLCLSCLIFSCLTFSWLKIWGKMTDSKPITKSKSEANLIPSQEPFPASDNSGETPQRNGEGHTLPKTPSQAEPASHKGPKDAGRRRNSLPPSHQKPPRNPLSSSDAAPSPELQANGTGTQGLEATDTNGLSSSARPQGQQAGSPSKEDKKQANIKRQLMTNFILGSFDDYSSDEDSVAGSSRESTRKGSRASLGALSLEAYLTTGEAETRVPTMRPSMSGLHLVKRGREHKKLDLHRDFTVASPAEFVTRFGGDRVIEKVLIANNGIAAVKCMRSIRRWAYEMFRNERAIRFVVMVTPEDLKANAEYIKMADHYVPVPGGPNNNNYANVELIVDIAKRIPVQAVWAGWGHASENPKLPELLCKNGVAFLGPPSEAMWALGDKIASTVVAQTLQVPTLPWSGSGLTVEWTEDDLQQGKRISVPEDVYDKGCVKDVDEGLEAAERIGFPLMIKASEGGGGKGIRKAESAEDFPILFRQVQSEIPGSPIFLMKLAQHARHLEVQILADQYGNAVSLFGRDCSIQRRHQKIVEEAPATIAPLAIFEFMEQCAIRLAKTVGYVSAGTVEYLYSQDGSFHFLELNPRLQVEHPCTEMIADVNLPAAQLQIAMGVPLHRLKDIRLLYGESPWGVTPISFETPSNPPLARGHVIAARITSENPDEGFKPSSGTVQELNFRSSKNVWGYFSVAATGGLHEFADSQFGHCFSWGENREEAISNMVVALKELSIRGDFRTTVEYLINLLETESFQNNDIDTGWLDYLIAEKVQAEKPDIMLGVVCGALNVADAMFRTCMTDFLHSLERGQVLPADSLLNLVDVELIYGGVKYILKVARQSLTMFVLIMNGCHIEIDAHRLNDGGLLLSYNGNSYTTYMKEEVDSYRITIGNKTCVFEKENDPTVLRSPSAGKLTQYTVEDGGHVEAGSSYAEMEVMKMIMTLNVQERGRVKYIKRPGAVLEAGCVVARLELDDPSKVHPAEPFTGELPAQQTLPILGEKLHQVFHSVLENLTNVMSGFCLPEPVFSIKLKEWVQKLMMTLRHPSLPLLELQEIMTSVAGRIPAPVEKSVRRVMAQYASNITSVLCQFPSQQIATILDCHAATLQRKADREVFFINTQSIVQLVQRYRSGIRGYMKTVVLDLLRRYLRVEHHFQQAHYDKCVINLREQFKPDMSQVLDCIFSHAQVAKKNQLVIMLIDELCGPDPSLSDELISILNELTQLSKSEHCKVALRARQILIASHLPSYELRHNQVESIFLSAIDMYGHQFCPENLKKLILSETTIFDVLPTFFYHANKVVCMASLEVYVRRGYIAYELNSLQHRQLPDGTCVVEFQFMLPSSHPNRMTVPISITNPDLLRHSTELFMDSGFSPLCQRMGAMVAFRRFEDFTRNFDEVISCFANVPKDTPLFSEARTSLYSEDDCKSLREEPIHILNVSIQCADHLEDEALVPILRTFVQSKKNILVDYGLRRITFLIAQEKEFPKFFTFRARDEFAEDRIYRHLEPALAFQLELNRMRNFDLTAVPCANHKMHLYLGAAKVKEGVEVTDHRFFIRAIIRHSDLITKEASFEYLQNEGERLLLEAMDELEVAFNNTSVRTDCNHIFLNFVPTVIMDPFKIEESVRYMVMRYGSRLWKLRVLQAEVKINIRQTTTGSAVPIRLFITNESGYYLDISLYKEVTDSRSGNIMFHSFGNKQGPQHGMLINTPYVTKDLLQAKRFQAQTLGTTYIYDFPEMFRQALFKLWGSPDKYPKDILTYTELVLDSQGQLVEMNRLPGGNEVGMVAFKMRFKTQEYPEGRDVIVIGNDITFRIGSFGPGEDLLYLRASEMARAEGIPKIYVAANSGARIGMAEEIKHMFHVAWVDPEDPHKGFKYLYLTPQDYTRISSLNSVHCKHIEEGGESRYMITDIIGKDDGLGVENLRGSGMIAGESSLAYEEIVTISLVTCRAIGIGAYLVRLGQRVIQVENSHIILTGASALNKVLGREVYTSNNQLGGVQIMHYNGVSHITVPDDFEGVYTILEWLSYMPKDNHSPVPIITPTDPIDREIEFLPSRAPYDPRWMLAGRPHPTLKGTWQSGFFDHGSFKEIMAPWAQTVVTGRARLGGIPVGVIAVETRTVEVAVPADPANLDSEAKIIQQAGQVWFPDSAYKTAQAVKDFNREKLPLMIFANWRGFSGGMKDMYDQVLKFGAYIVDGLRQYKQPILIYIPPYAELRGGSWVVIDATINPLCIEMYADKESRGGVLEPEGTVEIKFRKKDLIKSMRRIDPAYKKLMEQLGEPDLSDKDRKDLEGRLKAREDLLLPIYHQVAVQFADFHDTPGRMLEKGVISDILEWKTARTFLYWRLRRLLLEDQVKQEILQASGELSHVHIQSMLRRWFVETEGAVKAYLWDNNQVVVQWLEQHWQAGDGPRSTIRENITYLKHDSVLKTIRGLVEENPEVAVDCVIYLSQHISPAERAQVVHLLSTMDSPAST

| IC50 | Structure (SMILES) |
| --- | --- |
| < 10 nM | COc1ccccc1C(CN1C(=O)C2(CCC(C(=O)O)C2)C(=O)c2c1sc(-c1ncco1)c2C)OC1CCOCC1 (single isomer, unassigned) [Compound 5b, 7′-(2-(2-methoxyphenyl)-2-((tetrahydro-2H-pyran-4-yl)oxy)ethyl)-3′-methyl-2′-(oxazol-2-yl)-4′,6′-dioxo-6′,7′-dihydro-4′H-spiro[cyclopentane-1,5′-thieno[2,3-b]pyridine]-3-carboxylic Acid] |
| < 10 nM | COc1ccccc1C(CN1C(=O)C2(CC(C(=O)O)C2)C(=O)c2c1sc(-c1ncco1)c2C)OC1CCOCC1 (single isomer, unassigned) [Compound 8d, 7′-(2-(2-methoxyphenyl)-2-((tetrahydro-2H-pyran-4-yl)oxy)ethyl)-3′-methyl-2′-(oxazol-2-yl)-4′,6′-dioxo-6′,7′-dihydro-4′H-spiro[cyclobutane-1,5′-thieno[2,3-b]pyridine]-3-carboxylic Acid] |
| < 10 nM | COc1ccccc1[C@H](CN1c2sc(-c3ncco3)c(C)c2C(=O)[C@]2(C[C@H](C(=O)O)C2)C1=O)OC1CCOCC1 [Compound 8c, 7′-(2-(2-methoxyphenyl)-2-((tetrahydro-2H-pyran-4-yl)oxy)ethyl)-3′-methyl-2′-(oxazol-2-yl)-4′,6′-dioxo-6′,7′-dihydro-4′H-spiro[cyclobutane-1,5′-thieno[2,3-b]pyridine]-3-carboxylic Acid] |
